In US20160332971A1, “ARYLQUINOLINE, ARYLQUINOLONE AND ARYLTHIOQUINOLONE DERIVATIVES AND USE THEREOF TO TREAT CANCER” (UNIVERSITY OF KENTUCKY RESEARCH FOUNDATION, priority 2015, published 2016):

Experiments:
[1] = tested on: Par-4 secretion from mouse fibroblasts; assay: Par-4 secretion into conditioned medium, quantitative Western blot normalised to CollA1; type: cell-based; details: for Ratio of Par-4 Secretion by Arylquin 1 Relative to Vehicle / Par-4 secretory activity (in words): 500 nM; for Relative Levels of Par-4 Secretion by Arylquins Administered at 500 nM: 24 h, mouse fibroblasts, CM; for Par-4 secretory activity (in words): SAR discussion
Protocol: Calibration curve developed using fixed amounts (0.05-5 ng) of recombinant TRX-Par-4. […] Therefore the concentration was 0.82 ng/40 μL or 540 pM, In the same fashion, calculation for Par-4 concentration using vehicle (v) was 280 pM.
Biological activity of 3-Arylquinolines. […] After 24 h exposure, the CM and lysates were subjected to quantitative Western blot analysis for Par-4 and collagen (CollA1).
Co-immunoprecipitation and Western blot analysis. Protein extracted from cell lysates was filtered, pre-cleared with 25 μL (bed volume) of protein G-Sepharose beads and immunoprecipitated with 1 μg of respective antibodies. The eluted proteins were resolved by SDS-PAGE, and subjected to Western blot analysis as described previously. Bensch, et al. Nature 1968, 218(5147):1176-1177.
Statistical analyses. All experiments were performed in triplicate to verify the reproducibility of the findings. […] Statistical analyses were carried out with Statistical Analysis System software (SAS Institute, Cary, N.C.) and P values were calculated using the Student t test.

hERG potassium channel = hERG potassium channel (Homo sapiens, UniProt Q12809)
Excerpt: hERG Binding studies, An HEK-293 cell line stably expressing the hERG potassium channel (accession number U04270) referred to as hERG-HEK cells were received at passage 11 (P11) from Millipore (CYL3006, lot 2, Billerica, Mass.). [^3H]-Dofetilide (specific activity of 80 Ci/mmol; labeled on the N-methyl group) was obtained from American Radiolabeled Chemicals (St. Louis, Mo.). Other chemicals and solvents were obtained from Sigma-Aldrich (Milwaukee, Wis.). Polyethylenimine (PEI) was obtained from Fluka/Sigma-Aldrich (St. Louis, Mo.), and Minimium Essential Medium (MEM) with GlutaMAX™ and phenol red, MEM non-essential amino acids solution (NEAA, 100×), G418 disulfate salt solution, fetal bovine serum (FBS), 0.05% Trypsin-EDTA 1× with phenol red, and Hank's balanced salt solution (HBSS) were obtained from Life Technologies (Carlsbad, Calif.).
hERG-HEK Cell culture. hERG-FIEK Cells were cultured according to the protocol provided by Millipore. Cells were maintained in MEM (with glutamax and phenol red) supplemented with 10% […], 1% NEAA and […], and incubated at 37 ° C. in a humidified atmosphere with 5% CO2. Frozen aliquots of cells were transferred into T-75 cm^2 flasks and allowed to adhere for 4-8 h. The medium was replaced every 2 days. Passages were carried out at least 3 times after thawing at 6 day intervals. Cells were dissociated with trypsin/EDTA and seeded into new 150×25 mm dishes at 2-3×10^6 cells per dish and placed at 30° C., 5% CO2, for 40-48 h prior to membrane preparation. Membrane preparation occurred 6 days after the last passage (passage 20).
Membrane preparation. Cell membrane preparation was based on previous methods. See Herrmann, et al. J Mol Biol 1996, 264:933-953; Lavie, et al. J Org Chem 1965, 30(6):1774-1778; Chen, et al. A Practical Guide to Assay Development and High-throughput Screening in Drug Discovery, CRC Press Taylor and Francis Group, Boca Raton, Fla., 2010; Redfern, et al. Cardiovasc Res 2003, 58, 32-45. Cells were rinsed twice with HBSS at 37° C. and collected by scraping the dishes in 20 mL of ice-cold 0.32 M sucrose and homogenized on ice with a Teflon pestle using a Maximal Digital homogenizer (Fisher Scientific, Pittsburgh, Pa.) at 280 rpm for 30 sec. Homogenates were centrifuged at 300 g and 800 g for 4 min each at 4° C. Pellets were resuspended in 9 mL of ice-cold Milli-Q water and osmolarity restored by addition of 1 mL of 500 mM Tris buffer (pH 7.4) followed by suspension and centrifugation at 20,000 g for 30 min at 4° C. Pellets were homogenized in 2 mL assay buffer (50 mM Tris, 10 mM KCl, and 1 mM MgCl2, 4° C.) and aliquots of cell membrane suspensions were stored at −80° C. and thawed the day of the [^3H]-dofetilide binding assay. Protein content was determined prior to the assay using a Bradford protein assay with bovine albumin as the standard.
[^3H]-Dofetilide binding assay. [^3H]-Dofetilide binding assays using hERG-HEK293 cell membranes were based on previous methods. Redfern, et al. Cardiovasc Res 2003, 58, 32-45. Assays determining concentration-response were conducted in duplicate, and three independent assays were performed for each analog evaluated. […] Radioactivity was determined by liquid scintillation spectrometry using the Tri-Carb 2100-TR Liquid Scintillation Analyzer (Perkin-Elmer Life and Analytical Sciences) […]

Sequence of hERG potassium channel (Q12809 whole entry): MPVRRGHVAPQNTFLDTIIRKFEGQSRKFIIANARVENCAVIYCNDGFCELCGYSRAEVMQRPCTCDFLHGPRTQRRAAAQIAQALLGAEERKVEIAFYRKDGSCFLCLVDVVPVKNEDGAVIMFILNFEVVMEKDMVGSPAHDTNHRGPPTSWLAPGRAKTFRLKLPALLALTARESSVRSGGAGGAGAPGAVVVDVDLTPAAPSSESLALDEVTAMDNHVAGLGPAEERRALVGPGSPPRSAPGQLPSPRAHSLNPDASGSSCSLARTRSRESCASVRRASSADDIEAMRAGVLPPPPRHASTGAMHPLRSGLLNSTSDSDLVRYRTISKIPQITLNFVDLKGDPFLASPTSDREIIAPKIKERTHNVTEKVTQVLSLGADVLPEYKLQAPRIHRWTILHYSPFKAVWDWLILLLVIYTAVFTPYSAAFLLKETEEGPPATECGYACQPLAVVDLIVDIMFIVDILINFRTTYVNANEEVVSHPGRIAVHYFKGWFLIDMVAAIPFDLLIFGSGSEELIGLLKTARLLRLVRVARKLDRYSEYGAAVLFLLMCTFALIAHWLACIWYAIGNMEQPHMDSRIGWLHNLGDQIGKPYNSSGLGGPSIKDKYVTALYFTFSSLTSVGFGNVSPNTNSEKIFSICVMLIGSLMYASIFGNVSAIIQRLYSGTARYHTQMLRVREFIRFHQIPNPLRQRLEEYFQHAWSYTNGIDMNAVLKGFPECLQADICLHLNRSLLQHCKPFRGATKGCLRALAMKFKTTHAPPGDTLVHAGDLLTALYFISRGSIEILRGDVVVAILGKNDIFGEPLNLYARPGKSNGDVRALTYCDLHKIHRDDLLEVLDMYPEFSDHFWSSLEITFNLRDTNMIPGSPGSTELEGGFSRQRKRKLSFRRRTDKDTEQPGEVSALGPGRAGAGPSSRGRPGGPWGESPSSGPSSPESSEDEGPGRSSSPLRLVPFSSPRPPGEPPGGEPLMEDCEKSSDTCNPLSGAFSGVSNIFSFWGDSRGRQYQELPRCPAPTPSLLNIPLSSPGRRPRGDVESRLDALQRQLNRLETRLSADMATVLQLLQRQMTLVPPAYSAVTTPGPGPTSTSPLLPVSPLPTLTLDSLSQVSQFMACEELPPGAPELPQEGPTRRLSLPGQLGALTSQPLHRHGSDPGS

SMILES	Ratio of Par-4 Secretion by Arylquin 1 Relative to Vehicle ([1]; Table 2)	Relative Levels of Par-4 Secretion by Arylquins Administered at 500 nM ([1]; Table 2)	Par-4 secretory activity (in words) [1]	IC50 (hERG potassium channel) [µM]	Relative Levels of Par-4 Secretion by Arylquins Administered at 500 nM ([1]; Table 1)
CN(C)c1ccc2cc(-c3ccccc3F)c(=S)[nH]c2c1 [Arylquin 10]	1.7	51.7 ± 4.9	diminished Par-4 secretory activity relative to arylquinoline 1a	> 100	–
CN(C)c1ccc2cc(-c3ccccc3F)c(N3CCOCC3)nc2c1 [Arylquin 13a, 3-(2-Fluorophenyl)-NA-dimethyl-2-morpholinoquinolin-7-amine]	1.8	54.4 ± 2.8	diminished activity to varying degrees	23.3 ± 3.05	–
CN(C)c1ccc2cc(-c3ccc(F)cc3)c(N)nc2c1 [Arylquin 1f]	–	–	weakly active	30.2 ± 10.3	12.3 ± 2.0
Nc1nc2ccccc2cc1-c1ccccc1F [Arylquin 15a]	2.8	82.1 ± 21.2	decreased Par-4 secretory activity only slightly	14.6 ± 5.82	–
CN(C)c1ccc2cc(-c3cccc(F)c3)c(N)nc2c1 [Arylquin 1d]	–	–	weakly active	1.59 ± 0.39	66.8 ± 10.9
